Laboratory results from patent US10328077B2 (CELGENE CORPORATION, priority 2016, dated 2019).

What was measured:
human LSD-1 = human LSD-1 (Homo sapiens (Human), UniProt O60341); test: In vitro enzyme inhibition assay LSD-1 (TR-FRET); format: biochemical; conditions: TR-FRET, H3K4me1-biotin labeled peptide
From the text: This assay determines the ability of a test compound to inhibit LSD-1 demethylase activity.
The enzymatic assay of LSD-1 activity is based on Time Resolved-Fluorescence Resonance Energy Transfer (TR-FRET) detection.

[1] = test system: CD11b expression in THP-1 (AML) cells; test: LSD-1 CD11b cellular assay (flow cytometry); conditions: Homo sapiens, THP-1, 96 h, read-out: THP-1 IC50

Compound: COc1ccc(-c2c(-c3ccc(C#N)c(F)c3)nc(N3CCC(N)CC3)[nH]c2=O)cc1 [Example 122, 4-[2-(4-aminopiperidin-1-yl)-5-(4-methoxyphenyl)-6-oxo-1H-pyrimidin-4-yl]-2-fluorobenzonitrile]
- IC50 (human LSD-1): < 100 nM
- IC50 [1]: < 100 nM

Compound: COc1ccc(-c2c(-c3ccc(C#N)c(F)c3)nc(N3CC[C@H](N)[C@H](F)C3)n(C)c2=O)cc1 [Example 79, 4-[2-((4S, 3R)-4-amino-3-fluoro-piperidin-1-yl)-5-(4-methoxy-phenyl)-1-methyl-6-oxo-1,6-dihydro-pyrimidin-4-yl]-2-fluoro-benzonitrile]
- IC50 (human LSD-1): < 100 nM
- IC50 [1]: < 100 nM

Compound: COc1ccc(-c2c(-c3ccc(C#N)c(F)c3)nc(N3CCC[C@@H](N)C3)n(C)c2=O)cc1F [Example 25, 4-[2-((3R)-3-aminopiperidyl)-5-(3-fluoro-4-methoxyphenyl)-1-methyl-6-oxohydropyrimidin-4-yl]-2-fluorobenzenecarbonitrile]
- IC50 (human LSD-1): < 100 nM
- IC50 [1]: < 100 nM

Compound: CNC(=O)c1ccc(-c2c(-c3ccc(C#N)c(F)c3)nc(N3CCC(N)CC3)n(C)c2=O)cn1 [Example 50, 5-[2-(4-amino-piperidin-1-yl)-4-(4-cyano-3-fluoro-phenyl)-1-methyl-6-oxo-1,6-dihydro-pyrimidin-5-yl]-pyridine-2-carboxylic acid methylamide]
- IC50 (human LSD-1): < 100 nM
- IC50 [1]: < 100 nM

Compound: CCOc1ccc(-c2c(-c3ccc(C#N)c(F)c3)nc(N3CCC(N)CC3)n(C)c2=O)cc1 [Example 95, 4-[2-(4-aminopiperidin-1-yl)-5-(4-ethoxyphenyl)-1-methyl-6-oxopyrimidin-4-yl]-2-fluorobenzonitrile]
- IC50 (human LSD-1): < 100 nM
- IC50 [1]: < 100 nM

Compound: CN(C)c1ccc(-c2c(-c3ccc(C#N)c(F)c3)nc(N3CCCNCC3)n(C)c2=O)cn1 [Example 63, 4-[2-[1,4]diazepan-1-yl-5-(6-dimethylamino-pyridin-3-yl)-1-methyl-6-oxo-1,6-dihydro-pyrimidin-4-yl]-2-fluoro-benzonitrile]
- IC50 (human LSD-1): < 100 nM
- IC50 [1]: < 100 nM

Compound: COc1ccc(-c2c(-c3ccc(C#N)c(F)c3)nc(N3CCC(N(C)C)CC3)n(C)c2=O)cn1 [Example 92, 4-[2-[4-(dimethylamino)piperidin-1-yl]-5-(6-methoxypyridin-3-yl)-1-methyl-6-oxopyrimidin-4-yl]-2-fluorobenzonitrile]
- IC50 (human LSD-1): < 100 nM
- IC50 [1]: < 100 nM

Compound: Cn1c(N2CCC(N)CC2)nc(-c2ccc(C#N)c(F)c2)c(-c2ccc(OCCO)cc2)c1=O [Example 96, 4-[2-(4-aminopiperidin-1-yl)-5-[4-(2-hydroxyethoxy)phenyl]-1-methyl-6-oxopyrimidin-4-yl]-2-fluorobenzonitrile]
- IC50 (human LSD-1): < 100 nM
- IC50 [1]: < 100 nM

Compound: Cn1c(N2CCC(N)CC2)nc(-c2ccc(C#N)cc2)c(-c2ccc(OCCO)cc2)c1=O [Example 97, 4-[2-(4-aminopiperidin-1-yl)-5-[4-(2-hydroxyethoxy)phenyl]-1-methyl-6-oxopyrimidin-4-yl]benzonitrile]
- IC50 (human LSD-1): < 100 nM
- IC50 [1]: < 100 nM

Compound: CCOc1ccc(-c2c(-c3ccc(C#N)c(F)c3)nc(N3CCC(N)CC3)n(C)c2=O)cn1 [Example 94, 4-[2-(4-aminopiperidin-1-yl)-5-(6-ethoxypyridin-3-yl)-1-methyl-6-oxopyrimidin-4-yl]-2-fluorobenzonitrile]
- IC50 (human LSD-1): < 100 nM
- IC50 [1]: < 100 nM

Compound: CNC1CCN(c2nc(-c3ccc(C#N)c(F)c3)c(-c3ccc(OC)cc3)c(=O)n2C)CC1 [Example 11, 2-fluoro-4-[5-(4-methoxy-phenyl)-1-methyl-2-(4-methylamino-piperidin-1-yl)-6-oxo-1,6-dihydro-pyrimidin-4-yl]-benzonitrile]
- IC50 (human LSD-1): < 100 nM
- IC50 [1]: < 100 nM

Compound: COCCOc1ccc(-c2c(-c3ccc(C#N)c(F)c3)nc(N3CCC(N)CC3)n(C)c2=O)cc1 [Example 98, 4-[2-(4-aminopiperidin-1-yl)-5-[4-(2-methoxyethoxy)phenyl]-1-methyl-6-oxopyrimidin-4-yl]-2-fluorobenzonitrile]
- IC50 (human LSD-1): < 100 nM
- IC50 [1]: < 100 nM

Compound: CNCC1CN(c2nc(-c3ccc(C#N)c(F)c3)c(-c3ccc(OC)cc3)c(=O)n2C)C1 [Example 70, 2-fluoro-4-[5-(4-methoxy-phenyl)-1-methyl-2-(3-methylaminomethyl-azetidin-1-yl)-6-oxo-1,6-dihydro-pyrimidin-4-yl]-benzonitrile]
- IC50 (human LSD-1): < 100 nM
- IC50 [1]: < 100 nM

Compound: CCc1ccc(-c2c(-c3ccc(C#N)cc3)nc(N3CCC(N)CC3)n(C)c2=O)cn1 [Example 10, 4-[2-(4-amino-piperidin-1-yl)-5-(6-ethyl-pyridin-3-yl)-1-methyl-6-oxo-1,6-dihydro-pyrimidin-4-yl]-benzonitrile]
- IC50 (human LSD-1): < 100 nM
- IC50 [1]: 100 to 1000 nM

Compound: Cn1c(N2CCC(N)CC2)nc(-c2ccc(C#N)c(F)c2)c(-c2ccc3cn[nH]c3c2)c1=O [Example 77, 4-[2-(4-amino-piperidin-1-yl)-5-(1H-indazol-6-yl)-1-methyl-6-oxo-1,6-dihydro-pyrimidin-4-yl]-2-fluoro-benzonitrile]
- IC50 (human LSD-1): < 100 nM
- IC50 [1]: < 100 nM

Compound: CNC1CCN(c2nc(-c3ccc(C#N)c(F)c3)c(-c3ccc(N(C)C)nc3)c(=O)n2C)CC1 [Example 83, 4-[5-(6-dimethylamino-pyridin-3-yl)-1-methyl-2-(4-methylamino-piperidin-1-yl)-6-oxo-1,6-dihydro-pyrimidin-4-yl]-2-fluoro-benzonitrile]
- IC50 (human LSD-1): < 100 nM
- IC50 [1]: < 100 nM

Compound: Cn1cc2cc(-c3c(-c4ccc(C#N)c(F)c4)nc(N4CCC(N)CC4)n(C)c3=O)ccc2n1 [Example 37, 4-[2-(4-aminopiperidyl)-1-methyl-5-(2-methyl(2H-indazol-5-yl))-6-oxohydropyrimidin-4-yl]-2-fluorobenzenecarbonitrile]
- IC50 (human LSD-1): < 100 nM
- IC50 [1]: < 100 nM

Compound: COCc1ccc(-c2c(-c3ccc(C#N)c(F)c3)nc(N3CCC(N)CC3)n(C)c2=O)cc1 [Example 107, 4-[2-(4-aminopiperidin-1-yl)-5-[4-(methoxymethyl)phenyl]-1-methyl-6-oxopyrimidin-4-yl]-2-fluorobenzonitrile]
- IC50 (human LSD-1): < 100 nM
- IC50 [1]: < 100 nM

Compound: CNC1CCN(c2nc(-c3ccc(C#N)c(F)c3)c(-c3ccc(OC)nc3)c(=O)n2C)CC1 [Example 58, 2-fluoro-4-[5-(6-methoxy-pyridin-3-yl)-1-methyl-2-(4-methylamino-piperidin-1-yl)-6-oxo-1,6-dihydro-pyrimidin-4-yl]-benzonitrile]
- IC50 (human LSD-1): < 100 nM
- IC50 [1]: < 100 nM

Compound: COc1ccc(-c2c(-c3ccc(C#N)c(F)c3)nc(N3CCC[C@@H](N)C3)n(C)c2=O)cc1 [Example 30, 4-[2-((3R)-3-aminopiperidyl)-5-(4-methoxyphenyl)-1-methyl-6-oxohydro-pyrimidin-4-yl]-2-fluorobenzenecarbonitrile]
- IC50 (human LSD-1): < 100 nM
- IC50 [1]: < 100 nM

Compound: CN(C)C1CCN(c2nc(-c3ccc(C#N)c(F)c3)c(-c3ccc4cn[nH]c4c3)c(=O)n2C)CC1 [Example 84, 4-[2-(4-dimethylamino-piperidin-1-yl)-5-(2H-indazol-6-yl)-1-methyl-6-oxo-1,6-dihydro-pyrimidin-4-yl]-2-fluoro-benzonitrile]
- IC50 (human LSD-1): < 100 nM
- IC50 [1]: < 100 nM

Compound: COc1ccc(-c2c(-c3ccc(C#N)c(F)c3)nc(N3CC[C@@H](N)C3)n(C)c2=O)cc1F [Example 27, 4-[2-((3R)-3-aminopyrrolidinyl)-5-(3-fluoro-4-methoxyphenyl)-1-methyl-6-oxohydropyrimidin-4-yl]-2-fluorobenzenecarbonitrile]
- IC50 (human LSD-1): < 100 nM
- IC50 [1]: < 100 nM

Compound: COc1ccc(-c2c(-c3ccc(C#N)c(F)c3)nc(N(C)C[C@H]3CCNC3)n(C)c2=O)cc1 [Example 54, 2-fluoro-4-[5-(4-methoxy-phenyl)-1-methyl-2-(methyl-(3S)-pyrrolidin-3-ylmethyl-amino)-6-oxo-1,6-dihydro-pyrimidin-4-yl]-benzonitrile]
- IC50 (human LSD-1): < 100 nM
- IC50 [1]: < 100 nM

Compound: CN(C)c1ncc(-c2c(-c3ccc(C#N)c(F)c3)nc(N3CCC(N)CC3)n(C)c2=O)cn1 [Example 49, 4-[2-(4-amino-piperidin-1-yl)-2′-dimethylamino-1-methyl-6-oxo-1,6-dihydro-[5,5′]bipyrimidinyl-4-yl]-2-fluoro-benzonitrile]
- IC50 (human LSD-1): < 100 nM
- IC50 [1]: < 100 nM

Compound: Cn1c(N2CCC(N)CC2)nc(-c2ccc(C#N)c(F)c2)c(-c2ccc(CCO)cc2)c1=O [Example 99, 4-[2-(4-aminopiperidin-1-yl)-5-[4-(2-hydroxyethyl)phenyl]-1-methyl-6-oxopyrimidin-4-yl]-2-fluorobenzonitrile]
- IC50 (human LSD-1): < 100 nM
- IC50 [1]: < 100 nM

Compound: Cn1c(N2CCC(N)CC2)nc(-c2ccc(C#N)c(F)c2)c(-c2cc(F)cc(F)c2)c1=O [Example 103, 4-[2-(4-aminopiperidin-1-yl)-5-(3,5-difluorophenyl)-1-methyl-6-oxopyrimidin-4-yl]-2-fluorobenzonitrile]
- IC50 (human LSD-1): < 100 nM
- IC50 [1]: < 100 nM

Compound: COc1ccc(-c2c(-c3ccc(C#N)c(F)c3)nc(NC[C@H]3CCNC3)n(C)c2=O)cc1 [Example 51, 2-fluoro-4-{5-(4-methoxy-phenyl)-1-methyl-6-oxo-2-[(3S)-(pyrrolidin-3-ylmethyl)-amino]-1,6-dihydro-pyrimidin-4-yl}-benzonitrile]
- IC50 (human LSD-1): < 100 nM
- IC50 [1]: 100 to 1000 nM

Compound: Cn1c(N2CCC(N)CC2)nc(-c2ccc(C#N)c(F)c2)c(-c2ccc3c(c2)CNC3=O)c1=O [Example 42, 4-[2-(4-amino-piperidin-1-yl)-1-methyl-6-oxo-5-(1-oxo-2,3-dihydro-1H-isoindol-5-yl)-1,6-dihydro-pyrimidin-4-yl]-2-fluoro-benzonitrile]
- IC50 (human LSD-1): < 100 nM
- IC50 [1]: 100 to 1000 nM

Compound: Cn1c(N2CCC(N)CC2)nc(-c2ccc(C#N)c(F)c2)c(-c2ccc(N3CCOCC3)nc2)c1=O [Example 68, 4-[2-(4-amino-piperidin-1-yl)-1-methyl-5-(6-morpholin-4-yl-pyridin-3-yl)-6-oxo-1,6-dihydro-pyrimidin-4-yl]-2-fluoro-benzonitrile]
- IC50 (human LSD-1): < 100 nM
- IC50 [1]: < 100 nM
